One assay deals with LYN. Put plainly: Phosphorylation kinetics of LYN in RAMOS cells after BCR triggering (immunoblot). The assay is classed as cell-based, human. The conditions noted are these: LTV-1 5 μg/mL. The method, then: (§1) FIG. 40A depicts the phosphorylation of SHIP1, Lyn and ERK1/2 in total cell lysates of Ramos B cells treated or not with the PTPN22 inhibitor LTV-1 (5 μg/mL) for the indicated times. The cells were subjected to immunoblot analysis of P-LYN P-SHIP1, P-ERK1/2, and β-ACTIN. FIG. 40B depicts flow cytometry analysis of calcium flux of Ramos B cells treated or not with the PTPN22 inhibitor LTV-1 (5 μg/mL) for the indicated times followed by stimulation with anti-IgM F(ab′)2 at the indicated concentrations. FIG. 40C depicts flow cytometry analysis of calcium flux of splenocyte cells treated or not with LTV-1 (0.75 mg) twice daily for 7 days and stimulated with anti-IgM F(ab′)2 (25 μg/mL). FIG. 40D depicts flow cytometry analysis of calcium flux of splenocyte expressing PTPN22 shRNA and stimulated with anti-IgM F(ab′)2 (25 μg/mL).
(§2) However, downstream ERK phosphorylation was not affected by PTPN22 inhibition (FIG. 40A). Since PTPN22 inhibition enhanced TCR signaling in Jurkat cell line, it was investigated if PTPN22 blockade may also increase BCR signaling and calcium flux induced by BCR triggering was measured in RAMOS cells in the presence or not of LTV-1. Calcium flux was increased by PTPN22 inhibition, especially at lower concentration of BCR triggering agent (FIG. 40B). […]

The next assay concerns SHIP1. The assay is described as follows: Phosphorylation kinetics of SHIP1 in RAMOS cells after BCR triggering (immunoblot). The assay is classed as cell-based, human. The conditions noted are these: LTV-1 5 μg/mL. The method, then: as §1, §2
(A western blot detects proteins with antibodies after separation by electrophoresis.)

A further assay concerns ERK. Put plainly: Phosphorylation kinetics of ERK in RAMOS cells after BCR triggering (immunoblot). The conditions noted are these: LTV-1 5 μg/mL. The assay is classed as cell-based, human. How it is done: as §1, §2
Another assay relates to RAMOS cells. Put plainly: Calcium flux induced by BCR triggering in RAMOS cells (flow cytometry). The conditions noted are these: LTV-1 5 μg/mL, anti-IgM F(ab′)2, especially at lower concentration of BCR triggering agent. The class given is cell-based, human. How it is done:
as §1, §2
(A change in cytosolic calcium serves as a functional read-out for many receptors and channels.)

For the next assay, the system named is mature naive B cells. Put plainly: Peripheral B cell tolerance checkpoint in NSG+thymus mouse carrying the 1858T PTPN22 allele. The class given is in vivo, NSG mouse engrafted with human fetal HSCs and thymic tissue. The conditions noted are these: LTV-1 0.75 mg twice daily for a month. How it is done: FIG. 41A depicts a schematic diagram depicting the LTV-1 PTPN22 inhibitor treatment strategy. A NSG+thymus mouse generated with CD34^+ HSCs and thymic graft carrying the 1858T PTPN22 allele was injected twice daily with 0.75 mg of PTPN22 inhibitor for four weeks. FIG. 41B depicts the frequencies of HEp-2 reactive mature naive B cells from NSG+thymus mice treated or not with the PTPN22 inhibitor were determined. […] For each B cell fraction, the frequency of reactive (filled area) and non-reactive (open area) clones is summarized in pie charts with the total number of clones tested indicated in the center. In summarized reactivity panels on the right, each symbol represents either a subject or a humanized mouse. Averages are shown with a bar. Statistically significant differences are indicated ****P≤0.0001, ***P≤0.001. FIG. 41C depicts the frequencies of polyreactive mature naive B cells from NSG+thymus mice treated or not with the PTPN22 inhibitor were determined. […] For each B cell fraction, the frequency of reactive (filled area) and non-reactive (open area) clones is summarized in pie charts with the total number of clones tested indicated in the center. In summarized reactivity panels on the right, each symbol represents either a subject or a humanized mouse. Averages are shown with a bar. Statistically significant differences are indicated ****P≤0.0001, ***P≤0.001. […]

Molecules are shown by their SMILES.

Consider `Cc1ccccc1N1C(=O)/C(=C/c2ccc(OCc3cccc(C(=O)O)c3)cc2)C(=O)NC1=S` [LTV-1], for which the “phosphorylation of LYN at position Y396” value in the assay with LYN is “decreases”. The “phosphorylation of SHIP1 at position Y2010” value with SHIP1 was “decreases”. Also, the “downstream ERK phosphorylation” value in the assay on ERK was “not affected”. Also, the “calcium flux induced by BCR triggering” value with RAMOS cells is listed as “increased”. The “impaired peripheral B cell tolerance checkpoint (autoreactive mature naive B cells)” value in the assay on mature naive B cells is given as “effectively restored”.

Values taken from patent US11311543B2, “Compositions and methods for inhibiting PTPN22” (YALE UNIVERSITY, priority 2016, dated 2022).
